Laboratory results taken from patent publication US7897582B2, “Oligonucleotide compositions and methods for the modulation of the expression of B7 protein” (Isis Pharmaceuticals, Inc., priority 2003, dated 2011).
Strand notation (5' to 3'): a small letter for the sugar, then the base; units joined by * are phosphorothioate-linked, units joined directly phosphodiester-linked; [ ] holds rarer units or linkages, { } end groups; capitals alone tell only the bases. e = 2'-O-(2-methoxyethyl) (MOE); [5mC] = 5-methylcytosine; d = 2'-deoxy (DNA)

Legend:
hB7-2 mRNA = assay: Ribonuclease protection assay of hB7-2 mRNA in transfected COS-7 cells; assay type: cell-based, human
Experimental: For ribonuclease protection assays, cells were harvested 18 hours after completion of oligonucleotide treatment using a Totally RNA™ kit (Ambion, Austin, Tex.). The probes for the assay were generated from plasmids pcB7-2 (linearized by digestion with Bgl II) and pTRI-b-actin (Ambion Inc., Austin, Tex.). In vitro transcription of the linearized plasmid from the SP6 promoter was performed in the presence of α-^32P-UTP (800 Ci/mmole) yielding an antisense RNA complementary to the 3′ end of B7-2 (position 1044-1391). The probe was gel-purified after treatment with DNase I to remove DNA template. Ribonuclease protection assays were carried out using an RPA II™ kit (Ambion) according to the manufacturer's directions. Total RNA (5 μg) was hybridized overnight, at 42° C., with 10^5 cpm of the B7-2 probe or a control beta-actin probe. The hybridization reaction was then treated, at 37° C. for 30 minutes, with 0.4 units of RNase A and 2 units of RNase T1. Protected RNA was precipitated, resuspended in 10 μL of gel loading buffer and electrophoresed on a 6% acrylamide gel with 50% w/v urea at 20 W. The gel was then exposed and the lanes quantitated using a PhosphorImager (Molecular Dynamics, Sunnyvale, Calif.) essentially according to the manufacturer's instructions.
The oligonucleotides were screened as described in Example 4 except that the concentration of oligonucleotide was varied as shown in Table 13. Mismatch control oligonucleotides were included.

Human B7-1 mRNA = Human B7-1 mRNA expression in COS-7 cells, screened as in Example 4; assay type: cell-based; settings: human B7-1 mRNA; Table 7
[1] = COS-7 cells, B7-2 mRNA, oligonucleotide dose 10 nM, basal = 100%
[2] = COS-7 cells, B7-2 mRNA, oligonucleotide dose 30 nM, basal = 100%
[3] = COS-7 cells, B7-2 mRNA, oligonucleotide dose 100 nM, basal = 100%
[4] = COS-7 cells, B7-2 mRNA, oligonucleotide dose 300 nM, basal = 100%
[5] = COS-7 cells, B7-2 mRNA, oligonucleotide dose 10 nM
[6] = COS-7 cells, B7-2 mRNA, oligonucleotide dose 30 nM

| Substance | % mRNA EXPRESSION (hB7-2 mRNA; human B7-2 mRNA, Table 12) | % mRNA EXPRESSION (Human B7-1 mRNA) | % mRNA INHIBITION (Human B7-1 mRNA) | also measured |
| --- | --- | --- | --- | --- |
| 22305 (e[5mC]*eA*eT*e[5mC]*eA*dG*dA*dT*d[5mC]*dT*dT*dT*d[5mC]*dA*dG*eG*eT*eA*eT*eA; antisense) [compound 22305] | 57% | – | – | % mRNA INHIBITION (hB7-2 mRNA; human B7-2 mRNA, Table 12): 43% |
| 22306 (eG*eG*e[5mC]*eT*eT*dT*dA*d[5mC]*dT*d[5mC]*dT*dT*dT*dA*dA*eT*eT*eA*eA*eA; antisense) [compound 22306] | 44% | – | – | – |
| 22307 (eG*eA*eA*eA*eT*d[5mC]*dA*dA*dA*dA*dA*dG*dG*dT*dT*eG*e[5mC]*e[5mC]*e[5mC]*eA; antisense) [compound 22307] | 45% | – | – | – |
| 22308 (eG*eG*eA*eG*eT*d[5mC]*d[5mC]*dT*dG*dG*dA*dG*d[5mC]*d[5mC]*d[5mC]*e[5mC]*e[5mC]*eT*eT*eA; antisense) [compound 22308] | 40% | – | – | – |
| 22309 (eT*eT*eG*eG*e[5mC]*dA*dT*dA*d[5mC]*dG*dG*dA*dG*d[5mC]*dA*eG*eA*eG*e[5mC]*eT; antisense) [compound 22309] | 42% | – | – | – |
| 22310 (eT*eG*eT*eG*e[5mC]*dT*d[5mC]*dT*dG*dA*dA*dG*dT*dG*dA*eA*eA*eA*eG*eA; antisense) [compound 22310] | 41% | – | – | – |
| 22311 (eG*eG*e[5mC]*eT*eT*dG*dG*d[5mC]*d[5mC]*d[5mC]*dA*dT*dA*dA*dG*eT*eG*eT*eG*e[5mC]; antisense) [compound 22311] | 49% | – | – | – |
| 22312 (e[5mC]*e[5mC]*eT*eA*eA*dA*dT*dT*dT*dT*dA*dT*dT*dT*d[5mC]*e[5mC]*eA*eG*eG*eT; antisense) [compound 22312] | 83% | – | – | % mRNA INHIBITION (hB7-2 mRNA; human B7-2 mRNA, Table 12): 17% |
| 22313 (eA*eG*eA*e[5mC]*eT*d[5mC]*d[5mC]*dA*d[5mC]*dT*dT*d[5mC]*dT*dG*dA*eG*eA*eT*eG*eT; antisense) [compound 22313] | – | 75% | 25% | – |
| 22314 (eT*eG*eA*eA*eG*dA*dA*dA*dA*dA*dT*dT*d[5mC]*d[5mC]*dA*e[5mC]*eT*eT*eT*eT; antisense) [compound 22314] | – | 69% | 31% | – |
| 22315 (eT*eT*eT*eA*eG*dT*dT*dT*d[5mC]*dA*d[5mC]*dA*dG*d[5mC]*dT*eT*eG*e[5mC]*eT*eG) [compound 22315] | – | 49% | – | – |
| 22318 (eG*eT*eG*eA*eA*dA*dG*d[5mC]*d[5mC]*dA*dA*d[5mC]*dA*dA*dT*eT*eT*eG*eG*eA; antisense) [compound 22318] | – | 63% | 37% | – |
| 22319 (e[5mC]*eA*eT*eG*eG*d[5mC]*dT*dT*d[5mC]*dA*dG*dA*dT*dG*d[5mC]*eT*eT*eA*eG*eG; antisense) [compound 22319] | – | 68% | 32% | – |
| 22321 (eG*eA*e[5mC]*e[5mC]*eA*dG*d[5mC]*d[5mC]*dA*dG*d[5mC]*dA*d[5mC]*d[5mC]*dA*eA*eG*eA*eG*e[5mC]; antisense) [compound 22321] | – | 57% | 43% | – |
| 22326 (antisense eG*eT*eA*eT*eG*dT*dG*d[5mC]*d[5mC]*d[5mC]*dT*d[5mC]*dG*dT*d[5mC]*eA*eG*eA*eT*eG) [compound 22326] | – | 62% | 38% | – |
| 22328 (antisense eG*eG*eA*eA*eG*dT*d[5mC]*dA*dG*d[5mC]*dT*dT*dT*dG*dA*e[5mC]*eT*eG*eA*eT) [compound 22328] | – | 64% | 36% | – |
| 24736 (antisense eG*e[5mC]*eT*e[5mC]*e[5mC]*dA*dA*dG*dT*dG*dT*d[5mC]*d[5mC]*d[5mC]*dA*eA*eT*eG*eA*eA) [compound 24736] | – | – | – | % mRNA EXPRESSION (hB7-2 mRNA; [1]): 102%; % mRNA EXPRESSION (hB7-2 mRNA; [2]): 101%; % mRNA EXPRESSION (hB7-2 mRNA; [3]): 100%; % mRNA EXPRESSION (hB7-2 mRNA; [4]): 107% |
| 24737 (antisense eA*eG*eT*eA*eT*dG*dT*dT*dT*d[5mC]*dT*d[5mC]*dA*d[5mC]*dT*e[5mC]*e[5mC]*eG*eA*eT) [compound 24737] | – | – | – | % mRNA INHIBITION (hB7-2 mRNA; [5]): 15%; % mRNA EXPRESSION (hB7-2 mRNA; [1]): 85%; % mRNA INHIBITION (hB7-2 mRNA; [6]): 5%; % mRNA EXPRESSION (hB7-2 mRNA; [2]): 95%; % mRNA INHIBITION (hB7-2 mRNA; COS-7 cells, B7-2 mRNA, oligonucleotide dose 100 nM): 13%; % mRNA EXPRESSION (hB7-2 mRNA; [3]): 87%; % mRNA INHIBITION (hB7-2 mRNA; COS-7 cells, B7-2 mRNA, oligonucleotide dose 300 nM): 1%; % mRNA EXPRESSION (hB7-2 mRNA; [4]): 99% |
| 24738 (antisense eT*eG*e[5mC]*e[5mC]*eA*dG*d[5mC]*dA*d[5mC]*d[5mC]*d[5mC]*dG*dG*dT*dA*e[5mC]*eG*eT*e[5mC]*e[5mC]) [compound 24738] | – | – | – | % mRNA INHIBITION (hB7-2 mRNA; [5]): 19%; % mRNA EXPRESSION (hB7-2 mRNA; [1]): 81%; % mRNA INHIBITION (hB7-2 mRNA; [6]): 8%; % mRNA EXPRESSION (hB7-2 mRNA; [2]): 92%; % mRNA EXPRESSION (hB7-2 mRNA; [3]): 101%; % mRNA EXPRESSION (hB7-2 mRNA; [4]): 124% |
